ChEMBL document CHEMBL1201862, “PubChem BioAssay data set” (2004)
pEC50: −log10 of the molar value. Activity calls are given as the source filed them.

Tests used:
Paired box protein Pax-8 = Paired box protein Pax-8 (Homo sapiens, UniProt Q06710); assay: inhibitors of PAX8-driven TPO luciferase reporter, dose response, RMG-I cells, cherry-pick (AID 687027); assay type: functional, cell-based;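 also: luciferase reporter driven by Pax8 target thyroperoxidase promoter measured by SteadyGlo luminescence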
[1] = PAX2 cell-based inhibition, dose response, selectivity assay for PAX8 inhibitor project, plate reader, dry powder samples (AID 743048); assay type: functional;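 also: HEK293 cells carrying a WT1 promoter luciferase reporter driven by expressed Pax2; potency is for inhibition of Pax2 driven reporter signal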
[2] = cytotoxicity in COV362 ovarian cancer cells, dose response, cytotoxicity control for PAX8 inhibitor project, cell-based, plate reader, dry powder, SA12 (AID 743144); assay type: functional
[3] = NIH:OVCAR-3 ovarian cancer cell cytotoxicity, dose response, PAX8 inhibitor project, plate reader, dry powder samples (AID 743044); assay type: functional, cell-based
[4] = PAX5 activity inhibitors, dose response, selectivity assay for PAX8 inhibitor project, cell-based, plate reader, dry powder samples (AID 743047); assay type: functional;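 also: HEK293 cells carrying a Pax5 driven CD19 promoter luciferase reporter; potency of inhibitors that lower reporter luminescence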
[5] = IGROV1 ovarian cancer cell cytotoxicity, dose response, PAX8 inhibitor project, plate reader, dry powder samples (AID 743043); assay type: functional, cell-based; conditions: IGROV-1
[6] = cytotoxicity in COV434 cells, dose response, cytotoxicity control for PAX8 inhibitor project, cell-based, plate reader, dry powder, SA7 (AID 743145); assay type: functional
[7] = cytotoxicity in OV-90 ovarian cancer cells, dose response, PAX8 inhibitor project, cell-based, plate reader, dry powder, SA8 (AID 743149); assay type: functional
[8] = cytotoxicity dependent on PAX8, dose response, cell-based, plate reader, dry powder (AID 743049); assay type: functional
[9] = HepG2 cell cytotoxicity, dose response, cytotoxicity control, ATP luminescence, cherry-pick, set 6 (AID 1053125); assay type: functional, cell-based
cells [10] = conditions: A549
cells [11] = conditions: HEK293
[12] = MITF Orthogonal Assay: SK-MEL-5 CTG Assay Measured in Cell-Based System Using Plate Reader - 2084-02_Inhibitor_Dose_DryPowder_Activity_Set7.; assay type: functional
[13] = MITF: Counter assay: A375 proliferation Measured in Cell-Based System Using Plate Reader - 2084-03_Inhibitor_Dose_DryPowder_Activity_Set8.; assay type: functional; conditions: A-375
[14] = LGR2 antagonists, dose response, cell-based, HEK293, CRE-luciferase reporter, cherry pick (AID 743342); assay type: functional
cells [15] = assay type: functional, cell-based
[16] = biological target: T1, Trace amine-associated receptor 1 (Homo sapiens, UniProt Q96RJ0); assay: Fluorescence-based cell-based high throughput dose response assay to identify agonists of the human trace amine associated receptor 1 (TAAR1).; assay type: functional
[17] = biological target: T1, Trace amine-associated receptor 1; assay: Counterscreen for agonists of the human trace amine associated receptor 1 (hTAAR1): Fluorescence-based cell-based high throughput dose response assay to identify hTAAR1 agonist that also desensitize TAAR1 receptor response.; assay type: functional
cells [18] = assay type: functional, cell-based; remark: listed apart in the source
[19] = inhibitors of intracellular T. cruzi replication, confirmation, NIH3T3 host cells, beta-gal luminescence (AID 2044); assay type: functional, cell-based;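 also: intracellular parasites grown in NIH/3T3 mouse fibroblasts as host cells; luminescent beta-galactosidase reporter signal from transgenic T. cruzi replicating inside host cells; inhibitors lower the luminescence signal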
[20] = cytotoxicity toward NIH3T3 fibroblasts, dose response, counter-screen, cell-based, ATP luminescence, mouse fibroblasts (AID 2010); assay type: functional;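 also: cells exposed to compound for about 90 hours before reading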
Nonstructural protein 1 = Nonstructural protein 1 (Influenza A virus, UniProt Q194T2); assay type: functional, Influenza A virus (A/California/07/2009(H1N1))
INS1 = assay: beta cell apoptosis inhibitors, cytokine rescue, dose response, luminescence, retest (AID 449756); assay type: functional, cell-based; conditions: Rattus norvegicus;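 also: cell death triggered by IL-1 beta plus TNF-alpha plus IFN-gamma mixture; protective hits raise ATP signal compared with cytokine alone wells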
[21] = Shn3 3'UTR reporter inhibitors, dose response, cell-based, Clone20 osteoblasts, firefly luciferase, cherry-picked (AID 624132); assay type: functional;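 also: firefly luciferase luminescence from reporter carrying the Shn3 3'UTR in osteoblasts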
[22] = HepG2 cell cytotoxicity, dose response, cytotoxicity control for Shn3 inhibitor project, CellTiter-Glo, cherry-picked (AID 624134); assay type: functional, cell-based
[23] = control 3'UTR Renilla luciferase suppression, dose response, counter-screen for Shn3 inhibitor project, cell-based, Clone20-Shn3RL, cherry-picked (AID 624133); assay type: functional
Protein S100-A4 = Protein S100-A4 (Homo sapiens, UniProt P26447); assay: S100A4-myosin IIA binding inhibitor potency, dose response, biochemical, fluorescence polarization, cherry-picked hits (AID 687001); assay type: functional
[24] = CFTR ΔF508 corrector activity in bronchial cells, dose response, human bronchial epithelial cells, plate reader, cherry-pick, two tests (AID 743267); assay type: functional, cell-based
[25] = HEK293T cell cytotoxicity, dose response, cytotoxicity control for HIV Vif inhibitor project, cherry-picks (AID 652208); assay type: functional, cell-based
[26] = biological target: Metabotropic glutamate receptor 5 (Rattus norvegicus, UniProt P31424); assay: Identification of a glycine sulfonamide based non-MPEP site positive allosteric potentiator (PAM) of mGlu5 (calcium_assay).; assay type: functional
[27] = biological target: T2, Rac GTPase-activating protein 1 (Homo sapiens, UniProt Q9H0H5); assay: MgcRacGAP GTPase-activating activity inhibitors, confirmation, biochemical, ADP Hunter fluorescence, primary and confirmatory (AID 624330); assay type: functional
T2 sequence (Q9H0H5 whole entry): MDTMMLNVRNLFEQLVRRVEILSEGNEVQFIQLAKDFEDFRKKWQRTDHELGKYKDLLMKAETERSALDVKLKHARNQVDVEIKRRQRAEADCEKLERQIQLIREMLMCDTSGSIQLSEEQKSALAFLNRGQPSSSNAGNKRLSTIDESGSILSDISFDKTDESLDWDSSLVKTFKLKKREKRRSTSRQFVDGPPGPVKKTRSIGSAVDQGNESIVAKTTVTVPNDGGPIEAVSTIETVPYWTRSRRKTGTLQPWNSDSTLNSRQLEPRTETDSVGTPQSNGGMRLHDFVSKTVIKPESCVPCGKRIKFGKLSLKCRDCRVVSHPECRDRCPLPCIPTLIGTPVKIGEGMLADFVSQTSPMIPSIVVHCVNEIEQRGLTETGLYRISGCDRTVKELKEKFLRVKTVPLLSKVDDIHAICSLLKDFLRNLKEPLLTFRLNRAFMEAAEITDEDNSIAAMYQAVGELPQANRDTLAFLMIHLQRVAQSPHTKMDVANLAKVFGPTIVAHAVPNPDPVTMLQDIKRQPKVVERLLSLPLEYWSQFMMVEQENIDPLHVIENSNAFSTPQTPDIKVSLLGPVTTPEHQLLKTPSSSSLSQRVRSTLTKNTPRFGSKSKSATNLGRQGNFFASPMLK

[28] = biological target: SWI/SNF-related matrix-associated actin-dependent regulator of chromatin subfamily A member 2 (Homo sapiens, UniProt P51531); assay: Luminescence-based cell-based high throughput dose response assay to identify activators of the function of SWI/SNF related, matrix associated, actin dependent regulator of chromatin, subfamily a, member 2 (SMARCA2, BRM).; assay type: functional
[29] = Counterscreen for activators of the function of SWI/SNF related, matrix associated, actin dependent regulator of chromatin, subfamily a, member 2 (SMARCA2, BRM): Luminescence-based cell-based high throughput dose response assay to identify non-selective compounds using the VP16 reporter assay.; assay type: functional
[30] = biological target: ATP-dependent translocase ABCB1 (Homo sapiens, UniProt P08183); assay: ABCB1 efflux inhibition concentration-response, dose response, Jurkat-DNR cells, JC-1, flow cytometry, follow-up (AID 489002); assay type: functional
Chain of ATP-dependent translocase ABCB1 (P08183 whole entry): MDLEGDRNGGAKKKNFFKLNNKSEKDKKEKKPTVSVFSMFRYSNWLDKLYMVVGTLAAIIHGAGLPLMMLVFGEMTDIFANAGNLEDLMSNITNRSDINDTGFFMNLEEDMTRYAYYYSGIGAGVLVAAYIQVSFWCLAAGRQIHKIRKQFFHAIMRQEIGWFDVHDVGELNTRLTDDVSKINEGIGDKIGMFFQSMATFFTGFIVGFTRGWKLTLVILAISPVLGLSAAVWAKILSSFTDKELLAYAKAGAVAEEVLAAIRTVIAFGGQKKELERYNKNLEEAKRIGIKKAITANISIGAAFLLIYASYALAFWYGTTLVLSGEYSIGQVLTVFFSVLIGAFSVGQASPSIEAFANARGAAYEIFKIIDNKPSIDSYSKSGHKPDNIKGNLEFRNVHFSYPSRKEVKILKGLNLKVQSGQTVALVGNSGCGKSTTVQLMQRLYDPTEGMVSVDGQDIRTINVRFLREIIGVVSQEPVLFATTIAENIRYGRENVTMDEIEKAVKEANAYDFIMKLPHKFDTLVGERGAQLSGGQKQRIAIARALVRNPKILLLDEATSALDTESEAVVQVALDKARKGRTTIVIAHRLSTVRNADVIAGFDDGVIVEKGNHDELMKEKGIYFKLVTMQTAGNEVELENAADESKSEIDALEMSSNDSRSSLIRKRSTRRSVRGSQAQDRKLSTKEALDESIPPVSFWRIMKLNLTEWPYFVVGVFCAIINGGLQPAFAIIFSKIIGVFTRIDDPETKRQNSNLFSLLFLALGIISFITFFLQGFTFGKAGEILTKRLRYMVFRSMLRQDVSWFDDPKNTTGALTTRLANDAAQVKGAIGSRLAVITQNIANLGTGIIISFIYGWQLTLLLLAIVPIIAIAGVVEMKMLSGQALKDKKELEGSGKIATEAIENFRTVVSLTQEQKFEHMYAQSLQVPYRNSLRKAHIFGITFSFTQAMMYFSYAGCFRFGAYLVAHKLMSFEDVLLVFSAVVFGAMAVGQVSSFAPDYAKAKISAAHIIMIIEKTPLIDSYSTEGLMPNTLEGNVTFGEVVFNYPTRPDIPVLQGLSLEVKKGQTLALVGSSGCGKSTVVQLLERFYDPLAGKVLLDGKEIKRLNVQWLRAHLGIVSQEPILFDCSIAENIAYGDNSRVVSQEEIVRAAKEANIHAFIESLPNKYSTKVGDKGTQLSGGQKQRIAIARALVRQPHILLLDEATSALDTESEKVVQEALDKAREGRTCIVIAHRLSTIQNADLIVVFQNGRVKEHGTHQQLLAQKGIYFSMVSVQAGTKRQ

T1 sequence (Q96RJ0 whole entry): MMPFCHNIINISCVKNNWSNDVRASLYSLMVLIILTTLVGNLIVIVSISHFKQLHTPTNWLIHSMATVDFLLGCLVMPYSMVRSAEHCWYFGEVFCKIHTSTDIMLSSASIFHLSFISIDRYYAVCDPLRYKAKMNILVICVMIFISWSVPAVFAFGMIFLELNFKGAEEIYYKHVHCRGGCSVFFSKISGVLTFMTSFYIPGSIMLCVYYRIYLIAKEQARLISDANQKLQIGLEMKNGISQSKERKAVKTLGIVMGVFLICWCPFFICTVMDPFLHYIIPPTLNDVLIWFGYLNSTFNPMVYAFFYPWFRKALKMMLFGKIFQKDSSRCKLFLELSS
Chain of Metabotropic glutamate receptor 5 (P31424 whole entry): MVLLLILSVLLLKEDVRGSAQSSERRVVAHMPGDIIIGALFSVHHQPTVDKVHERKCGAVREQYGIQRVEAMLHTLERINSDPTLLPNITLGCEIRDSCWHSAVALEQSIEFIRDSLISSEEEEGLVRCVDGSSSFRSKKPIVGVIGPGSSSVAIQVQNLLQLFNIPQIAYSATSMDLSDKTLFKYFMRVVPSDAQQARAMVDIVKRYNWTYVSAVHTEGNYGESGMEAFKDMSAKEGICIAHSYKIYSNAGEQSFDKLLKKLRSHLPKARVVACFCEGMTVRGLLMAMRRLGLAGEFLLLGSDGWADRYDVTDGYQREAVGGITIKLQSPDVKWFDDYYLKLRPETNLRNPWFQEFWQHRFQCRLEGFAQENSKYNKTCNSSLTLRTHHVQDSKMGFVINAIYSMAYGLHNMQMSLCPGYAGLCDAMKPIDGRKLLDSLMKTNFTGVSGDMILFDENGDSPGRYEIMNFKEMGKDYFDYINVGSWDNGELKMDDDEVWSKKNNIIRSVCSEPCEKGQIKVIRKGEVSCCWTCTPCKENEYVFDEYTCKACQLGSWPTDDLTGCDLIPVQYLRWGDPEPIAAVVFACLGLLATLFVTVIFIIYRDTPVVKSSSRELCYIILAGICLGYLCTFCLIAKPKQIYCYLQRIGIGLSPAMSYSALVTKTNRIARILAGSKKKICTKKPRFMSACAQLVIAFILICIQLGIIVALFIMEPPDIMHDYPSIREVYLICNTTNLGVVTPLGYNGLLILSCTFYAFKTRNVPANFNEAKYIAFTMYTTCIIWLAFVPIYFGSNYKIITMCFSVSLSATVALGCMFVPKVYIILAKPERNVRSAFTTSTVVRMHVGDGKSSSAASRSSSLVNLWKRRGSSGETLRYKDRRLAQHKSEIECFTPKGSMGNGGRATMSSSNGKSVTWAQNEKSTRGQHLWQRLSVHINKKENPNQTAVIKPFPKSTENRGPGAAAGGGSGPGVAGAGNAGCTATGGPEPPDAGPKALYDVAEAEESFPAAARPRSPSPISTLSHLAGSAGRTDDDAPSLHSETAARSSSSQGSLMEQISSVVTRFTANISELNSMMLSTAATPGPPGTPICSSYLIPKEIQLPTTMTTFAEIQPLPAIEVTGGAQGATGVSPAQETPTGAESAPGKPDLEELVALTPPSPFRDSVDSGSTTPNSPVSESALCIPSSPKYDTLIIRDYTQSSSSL
Chain of SWI/SNF-related matrix-associated actin-dependent regulator of chromatin subfamily A member 2 (P51531 whole entry): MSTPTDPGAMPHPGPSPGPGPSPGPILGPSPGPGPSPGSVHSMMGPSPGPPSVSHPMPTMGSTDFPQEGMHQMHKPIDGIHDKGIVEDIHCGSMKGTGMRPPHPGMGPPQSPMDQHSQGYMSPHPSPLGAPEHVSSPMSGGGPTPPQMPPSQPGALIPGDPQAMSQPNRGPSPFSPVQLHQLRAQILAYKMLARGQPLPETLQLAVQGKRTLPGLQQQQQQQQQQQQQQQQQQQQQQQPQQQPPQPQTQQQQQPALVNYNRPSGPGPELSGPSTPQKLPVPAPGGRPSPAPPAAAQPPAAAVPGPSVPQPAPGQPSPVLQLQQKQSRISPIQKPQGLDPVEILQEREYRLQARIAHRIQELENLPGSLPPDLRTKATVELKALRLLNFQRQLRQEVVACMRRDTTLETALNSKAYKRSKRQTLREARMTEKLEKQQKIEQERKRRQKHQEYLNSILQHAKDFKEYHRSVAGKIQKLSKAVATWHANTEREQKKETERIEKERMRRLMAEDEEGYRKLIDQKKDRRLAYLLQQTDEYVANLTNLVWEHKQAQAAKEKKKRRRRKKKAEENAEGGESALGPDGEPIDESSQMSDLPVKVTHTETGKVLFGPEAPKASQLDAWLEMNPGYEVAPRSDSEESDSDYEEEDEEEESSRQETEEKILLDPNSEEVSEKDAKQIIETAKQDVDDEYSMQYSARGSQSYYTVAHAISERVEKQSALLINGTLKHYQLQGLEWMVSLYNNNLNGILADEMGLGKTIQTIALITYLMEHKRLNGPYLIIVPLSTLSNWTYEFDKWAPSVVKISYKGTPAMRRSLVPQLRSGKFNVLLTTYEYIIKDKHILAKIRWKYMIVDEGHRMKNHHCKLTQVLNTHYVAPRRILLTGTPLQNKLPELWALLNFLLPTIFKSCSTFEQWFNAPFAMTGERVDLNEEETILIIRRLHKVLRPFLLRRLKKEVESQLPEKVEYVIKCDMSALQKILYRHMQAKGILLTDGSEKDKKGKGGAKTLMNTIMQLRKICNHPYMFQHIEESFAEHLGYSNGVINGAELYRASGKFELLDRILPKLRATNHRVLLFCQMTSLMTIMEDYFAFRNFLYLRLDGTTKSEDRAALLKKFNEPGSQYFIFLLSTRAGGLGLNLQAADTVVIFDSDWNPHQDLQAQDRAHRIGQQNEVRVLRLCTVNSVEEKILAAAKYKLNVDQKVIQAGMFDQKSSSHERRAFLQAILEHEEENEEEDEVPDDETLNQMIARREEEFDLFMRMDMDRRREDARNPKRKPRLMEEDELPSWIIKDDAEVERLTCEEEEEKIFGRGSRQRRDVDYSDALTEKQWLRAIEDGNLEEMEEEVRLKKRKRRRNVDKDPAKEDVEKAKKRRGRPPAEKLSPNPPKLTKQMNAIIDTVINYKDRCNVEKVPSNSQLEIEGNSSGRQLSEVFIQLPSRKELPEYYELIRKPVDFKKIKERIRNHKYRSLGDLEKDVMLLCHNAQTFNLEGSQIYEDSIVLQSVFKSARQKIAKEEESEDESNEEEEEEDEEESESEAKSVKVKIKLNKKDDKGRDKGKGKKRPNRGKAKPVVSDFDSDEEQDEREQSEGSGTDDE
Chain of Protein S100-A4 (P26447 whole entry): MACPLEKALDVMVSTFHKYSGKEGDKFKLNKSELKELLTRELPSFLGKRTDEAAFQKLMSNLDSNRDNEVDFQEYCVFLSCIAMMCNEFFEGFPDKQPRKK
Chain of Nonstructural protein 1 (Q194T2 whole entry): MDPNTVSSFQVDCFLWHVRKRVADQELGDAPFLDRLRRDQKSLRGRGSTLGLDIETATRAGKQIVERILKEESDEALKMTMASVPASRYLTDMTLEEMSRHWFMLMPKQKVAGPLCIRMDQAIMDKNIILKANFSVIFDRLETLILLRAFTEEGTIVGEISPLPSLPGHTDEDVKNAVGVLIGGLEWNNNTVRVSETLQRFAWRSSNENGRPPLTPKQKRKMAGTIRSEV

Cc1nc2sc(C(c3ccco3)N3CCN(C(c4ccccc4)c4ccccc4)CC3)c(O)n2n1 (centres undefined)
AC50 (Paired box protein Pax-8): 5.25 µM (active)
AC50 [1]: 62.5 µM (active)
AC50 [2]: 69 µM (active)
AC50 [3]: 40.9 µM (active)
AC50 [4]: > 100 µM (inactive)
AC50 [5]: 17 µM (active)
AC50 [6]: 45.6 µM (active)
AC50 [7]: 47 µM (active)
AC50 [8]: 8.59 µM (active)

O=C(NCc1cc(C(F)(F)F)ccc1Cl)c1cccc2c1C(=O)c1ccc(Cl)cc1S2(=O)=O
AC50 [9]: > 52 µM (inactive)
AC50 (cells [10]): 37.6 µM (active)
AC50 (cells [11]): > 52 µM (inactive)

CC1=C(N)C(=O)c2ccccc2C1=O
AC50 [12]: 3.74 µM (active)
AC50 [13]: > 70 µM (inactive)

C[C@H](CO)N1C[C@H](C)[C@H](CN(C)C(=O)Nc2ccccc2)OCCCC[C@H](C)Oc2ccc(NC(=O)NC3CCCCC3)cc2C1=O
AC50 [14]: 12 µM (active)

CC(C)[C@H](NC(=O)c1ccccc1)C(=O)N1CCC[C@H]1C(=O)NCCc1ccccc1Cl
IC50 (cells [15]): > 29.9 µM (inactive)
EC50 [16]: 0.754 µM (active)
IC50 [17]: 1.2 µM (active)
EC50 (cells [18]): > 29.9 µM (inactive)

CN1/C(=C\C=C2/SC(=S)NC2=O)C(C)(C)c2ccccc21
EC50 [19]: 0.981 µM (active)
EC50 [20]: 7.49 µM (active)
IC50 (Nonstructural protein 1): 38.8 µM (active)
AC50 (INS1): 2.87 µM (active)
AC50 [21]: 2.6 µM (active)
AC50 [22]: 38.6 µM (active)
AC50 [23]: 1.42 µM (active)
AC50 (Protein S100-A4): 0.819 µM (active)

COc1c(O[C@@H]2O[C@H](CO)[C@@H](O)[C@H](O)[C@H]2O)cc2c(c1OC)-c1ccc(SC)c(=O)cc1[C@@H](NC(C)=O)CC2 [THIOCOLCHICOSIDE]
AC50 [24]: 50 µM (active)

COC(=O)c1ccc(NCc2cc(O)ccc2O)cc1O
AC50 [25]: 26.3 µM (active)

CC(C(=O)Nc1cc(F)cc(C#N)c1)N(c1ccccc1Cl)S(C)(=O)=O (centres undefined)
pEC50 [26]: 5.26

Nc1ccc2c(c1)C(=O)c1cc(N)c(Cl)cc1-2
IC50 [27]: 22.1 µM (active)
EC50 [28]: > 91.2 µM (inactive)
EC50 [29]: > 91.2 µM (inactive)

Cc1ccc(-c2cc3nc(-c4ccco4)cc(N4CCN(Cc5ccoc5)CC4)n3n2)cc1
EC50 [30]: 0.01411 µM
